Literature values, collected in patent publication US20140378500A1, “METHODS FOR PREDICTING TUMOR REPONSE TO TARGETED THERAPIES” (20/20 Gene Systems, Inc., priority 2012, published 2014).

System: advanced renal cell carcinoma (RCC)
Settings: cited from earlier work

Compound: CO[C@H]1C[C@@H]2CC[C@@H](C)[C@@](O)(O2)C(=O)C(=O)N2CCCC[C@H]2C(=O)O[C@H]([C@H](C)C[C@@H]2CC[C@@H](OC(=O)C(C)(CO)CO)[C@H](OC)C2)CC(=O)[C@H](C)/C=C(\C)[C@@H](O)[C@@H](OC)C(=O)[C@H](C)C[C@H](C)/C=C/C=C/C=C/1C [TORISEL, Temsirolimus]
- kidney cancer patients who benefit materially (kidney cancer patients, mTOR inhibitors): less than 10%
- response rate (patients diagnosed with advanced RCC): less than 10%
